{"source": "patent US20030006516A1", "about": "“Optical data storage medium containing a heterocyclic azo dye as the light-absorbing compound in the information layer” (priority 2001, published 2003)", "format_in_all_cases": "physicochemical", "key": {"[1]": {"experiment": "Film formation (morphology of the dye layer)", "description": "In addition to the abovementioned optical properties, the recordable information layer consisting of light-absorbing organic substances must have a morphology which is as amorphous as possible, in order to keep the noise signal during recording or reading as small as possible. For this purpose it is particularly preferable, when applying the substances by spin-coating from a solution or by vapour deposition and/or sublimation, to prevent crystallization of the light-absorbing substances during the subsequent top-coating with metallic or dielectric layers in vacuo."}, "[2]": {"experiment": "Solubility in TFP (2,2,3,3-tetrafluoropropanol)", "description": "Solubility: >2% in TFP (2,2,3,3-tetrafluoropropanol)"}, "[3]": {"experiment": "Absorption spectrum measured in solution (λmax, ε, slope width, solvatochromism)", "method": "For a recordable optical data storage medium according to the invention which is recorded on and read using light from a blue laser, such heterocyclic azo dyes are preferred whose absorption maximum λmax2 is in the range from 420 to 550 nm, […] half the extinction value at λmax2, and the wavelength λ1/10, at which the extinction on the short-wavelength slope of the absorption maximum of the wavelength λmax2 is a tenth of the extinction value at λmax2, are preferably in each case no further than 80 nm away from each other.\nFor a recordable optical data storage medium according to the invention which is recorded on and read using light from a red laser, such heterocyclic azo dyes are preferred whose absorption maximum λmax2 is in the range from 500 to 650 nm, wherein the wavelength λ1/2 at which the extinction on the long-wavelength slope of the absorption maximum of the wavelength λmax2 is half the extinction value at λmax2, and the wavelength λ1/10, at which the extinction on the long-wavelength slope of the absorption maximum of the wavelength λmax2 is a tenth of the extinction value at λmax2, are preferably in each case no further than 60 nm away from each other.\nAt the absorption maximum λmax2 the heterocyclic azo dyes preferably have a molar extinction coefficient E of >25000 l/mol cm, preferably >35000 l/mol cm, particularly preferably >40000 l/mol cm and very particularly preferably >50000 l/mol cm.\nThe absorption spectra are, for example, measured in solution.\nSuitable heterocyclic azo dyes having the required spectral properties are in particular those in which the change in the dipole moment Δμ=|μg−μag|, i.e. the positive difference between the dipole moments in the ground state and the first excited state is as small as possible, i.e. preferably <5 D, and particularly preferably <2 D. One method of determining such a change in the dipole moment Δμ is described for example in F. Würthner et al., Angew. Chem. 1997, 109, 2933 and in the literature cited therein. Low solvatochromism (dioxan/DMF) is also a suitable criterion for selection. Preferred heterocyclic azo dyes are those whose solvatochromism Δλ=|λDMFλdioxan|, i.e. the positive difference between the absorption wavelengths in the solvents dimethyl formamide and dioxan is <20 nm, particularly preferably <10 nm, and very particularly preferably <5 nm."}}}
{"smiles": "CC(C)N(c1nnc(/N=N/c2cnc(N(C)C)s2)s1)C(C)C", "note": "[Example 1]", "values": [{"measurement": "film", "setting": "[1]", "value": "a glassy film"}, {"measurement": "Solubility", "setting": "[2]", "value": "> 2", "unit": "%"}, {"measurement": "λ1/2-λ1/10 (long-wave slope)", "setting": "[3]; Example 1, long-wave slope", "value": 22, "unit": "nm"}, {"measurement": "ε", "setting": "[3]; Example 1, molar extinction coefficient at λmax", "value": 44140, "unit": "L/mol/cm"}, {"measurement": "λmax", "setting": "[3]; Example 1, solvent not given", "value": 496, "unit": "nm"}, {"measurement": "Δλ=|λDMF−λdioxan|", "setting": "[3]; solvatochromism DMF vs dioxan", "value": 2, "unit": "nm"}]}
